Structures are written as SMILES. “And” between values parts separate entries of the source, which are not always exact repeats. Equal entries are not always repeated. Where two headings read alike, the source gives them in different places.

As a reminder, the IC50 is the concentration that inhibits the measured activity by half.

One series deals with S. aureus NCTC 8325. The series can be described thus: Minimum inhibitory concentration (MIC), 96-well plates, serial dilutions in LB medium. It is filed as cell-based. To be noted: Staphylococcus aureus. From the text: (§1) Example 12: Determination of the Minimum Inhibitory Concentration (MIC) with Non-Pathogenic E. coli and B. subtilis and/or Pathogenic Strains of S. aureus Including Three MRSA Strains (USA 300, Mu50 and DSM18827) as Well as the Pathogenic Fungus Candida albicans
(§2) Minimum inhibitory concentrations (MIC) for compounds 1 to 11 with non-pathogenic E. coli and B. subtilis and/or pathogenic strains of S. aureus including three MRSA strains (USA 300, Mu50 and DSM18827) as well as the pathogenic fungus Candida albicans were determined in 96-well plates with serial dilutions in LB medium.

For the next series, the system named is E. coli K12. The series is described as above. It is filed as cell-based. To be noted: Escherichia coli.
Description: as §1, §2

In a further series the test system is B. subtilis. The description is as above. The series is classed as cell-based. To be noted: Bacillus subtilis, read-out: Minimum inhibitory concentration (MIC).
Description: as §1, §2

For series [1], the system named is developing neurons (LUHMES d2-3). Description: Toxicological testing with developing neurons in the LUHMES d2-3 assay. Particulars: 0-100 μM tested. The series is classed as cell-based. The method, then:
Example 14: Toxicological Testing with Developing Neurons in the LUHMES d2-3 Assay
Compounds 3, 5, and 10 were toxicologically tested with developing neurons in the LUHMES d2-3 assay at concentrations varying from 0 to 100 μM (cf. FIGS. 4 to 6). […] In the case of compound 5 (cf. FIG. 5), general cytotoxicity (orange line) and inhibition of neurite outgrowth each started above 40 μM (green line). For compound 10 (cf. FIG. 6), general cytotoxicity (orange line) started at 80 μM and inhibition of neurite outgrowth started at 40 μM (green line).

Another series has as its system S. aureus USA 300 (MRSA). The series can be described thus: Minimum inhibitory concentration (MIC), 96-well plates, serial dilutions in LB medium. The series is classed as cell-based. Particulars: Staphylococcus aureus, read-out: Minimum inhibitory concentration (MIC).
Description: as §1, §2
Example 21: Determination of the Minimum Inhibitory Concentration (MIC) for the Compounds Represented by the Formulas (14) and (16) with the Pathogenic USA 300 (MRSA) Strain of S. aureus
Minimum inhibitory concentrations (MIC) for the compounds represented by the Formulas (14) and (16) with the pathogenic MRSA strains of S. aureus USA 300 were determined in 96-well plates with serial dilutions in LB medium.

The subject of a further series is Neisseria meningitidis. The series can be described thus: Growth curves in comparison to an untreated and a DMSO treated control. It is filed as cell-based. Here is the method:
(§3) Example 22: Determination of the Inhibitory Effect of 1-S-PQS (5) Against Moraxella catarrhalis and Neisseria meningitidis by Measuring Growth Curves in Comparison to an Untreated and a DMSO Treated Control
(§4) The inhibitory effect of 1-S-PQS (5) against Moraxella catarrhalis and Neisseria meningitidis was determined by measuring growth curves in comparison to an untreated and a DMSO treated control (cf. FIGS. 11 to 14). […] M. catarrhalis is an important human pathogen responsible for otitis media in children and chronic obstructive pulmonary disease (COPD) in adults.

The test system of series [2] is S. aureus Mu50 (MRSA). The series can be described thus: Minimum inhibitory concentration (MIC), 96-well plates, serial dilutions in LB medium. The series is classed as cell-based. Particulars: Staphylococcus aureus, read-out: Minimum inhibitory concentration (MIC).
Description: as §1, §2

Series [3] deals with S. aureus DSM18827 (MRSA). The series is described as above. Particulars: Staphylococcus aureus, DSM 11827 / DSM 18827 / MRSA, read-out: Minimum inhibitory concentration (MIC). It is filed as cell-based.
Description: as §1, §2

In the next series the test system is Moraxella catarrhalis. The series can be described thus: Growth curves in comparison to an untreated and a DMSO treated control. It is filed as cell-based. The method, then: as §3, §4
Example 23: Determination of the Inhibitory Effect of the Compound Represented by the Formula (14) Against Moraxella catarrhalis by Measuring Growth Curves in Comparison to an Untreated and a DMSO Treated Control
The inhibitory effect of the compound represented by the Formula (14) against Moraxella catarrhalis was determined by measuring growth curves in comparison to an untreated and a DMSO treated control (cf. FIGS. 15 and 16).

Another series concerns Neisseria gonorrhoeae. The description is as above. It is filed as cell-based. The method, then: Example 24: Determination of the Inhibitory Effect of 1-S-PQS (5) and the Compound Represented by the Formula (14) Against Neisseria gonorrhoeae by Measuring Growth Curves in Comparison to an Untreated and a DMSO Treated Control
The inhibitory effect of 1-S-PQS (5) and the compound represented by the Formula (14) against Neisseria gonorrhoeae was determined by measuring growth curves in comparison to an untreated and a DMSO treated control (cf. FIGS. 17 to 19). […] The compound represented by the Formula (14) was effective against N. gonorrhoeae around 25-50 μM (cf. FIG. 19).

The target in another series is elastase (LasB) (Pseudomonas aeruginosa, UniProt P14756). The series can be described thus: In vitro elastase assay with fluorogenic substrate Abz-peptide-Nba. The series is classed as biochemical, P. aeruginosa. The method, then:
Example 16: In Vitro Inhibition of Elastase (LasB) with Compounds 6, 7, and 12
An in-vitro elastase assay was performed according to Cathcart et al. (G. R. Cathcart, B. F. Gilmore, B. Greer, P. Harriott, B. Walker, Bioorganic & medicinal chemistry letters 2009, 19, 6230-6232). For a typical in vitro elastase assay 82 μL buffer (0.05 M TRIS HCl, 2.5 mM CaCl2, pH=7.2) and 5 μL of compound 6 solved in DMSO were added in a 96 well plate. 10 μL of 3 μg/mL elastase (solved in the same Tris/CaCl2 buffer) were added and mixed with the compound. After incubation for 10 min at room temperature, 3 μL fluorogenic substrate Abz-peptide-Nba (2-aminobenzoyl-Ala-Gly-Leu-Ala-4-nitrobenzylamide) in DMF were added and the fluorescence measured for 90 min in one minute steps (excitation at 330 nm, emission at 460 nm). The slope of the resulting graph was used to calculate the enzymatic activity.

In series [4] the test system is S. aureus Mu50 (MRSA). To be noted: cited from earlier work; for MIC of known antibiotics: comparison values.
[5] abbreviates: NCTC8325, read-out: Minimum inhibitory concentration (MIC).
Setting [6] is: S. aureus USA 300 (MRSA), LB medium.
Where [7] appears, read: NCTC8325, S. aureus NCTC 8325, LB medium, read-out: Minimum inhibitory concentration (MIC).
Where [8] appears, read: S. aureus Mu50 (MRSA), LB medium.
Setting [9] is: S. aureus DSM18827 (also printed DSM11827), MRSA, LB medium.
Where [10] appears, read: 5 μM was the lowest concentration tested.

Chain of elastase (LasB) (P14756 198-498): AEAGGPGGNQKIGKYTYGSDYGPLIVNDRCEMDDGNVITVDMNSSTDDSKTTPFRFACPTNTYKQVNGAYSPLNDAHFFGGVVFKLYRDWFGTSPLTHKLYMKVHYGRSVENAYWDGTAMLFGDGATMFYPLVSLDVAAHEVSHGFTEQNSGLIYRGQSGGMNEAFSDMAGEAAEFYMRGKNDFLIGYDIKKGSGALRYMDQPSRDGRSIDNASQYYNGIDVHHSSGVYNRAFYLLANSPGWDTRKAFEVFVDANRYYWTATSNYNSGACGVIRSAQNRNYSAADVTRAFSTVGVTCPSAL

With `CCCCCCCc1cc(=O)c2ccccc2[nH]1` [Compound 1, 2-heptyl-4-quinolone, reference compound], the MIC was > 1000 µM and > 243 µg/mL with S. aureus NCTC 8325 (setting [5]); > 1000 µM and > 243 µg/mL against E. coli K12; > 1000 µM and > 243 µg/mL in the series on B. subtilis.
Turning to `CCCCCCCc1cc(=O)c2ccccc2[te]1` [Compound 2, 2-heptyl-4H-tellurochromen-4-one], the MIC with B. subtilis is 100 µM to 250 µM and 36 µg/mL to 89 µg/mL.
On to `CCCCCCCc1[nH]c2ccccc2c(=O)c1O` [Compound 4, 2-heptyl-3-hydroxy-4-quinolone, reference compound], for which the MIC is > 1000 µM and > 259 µg/mL with S. aureus NCTC 8325 (setting [5]); > 1000 µM and > 259 µg/mL in the series with E. coli K12; > 1000 µM and > 259 µg/mL in the series with B. subtilis.
Turning to `CCCCCCCc1sc2ccccc2c(=O)c1O` [Compound 5, 2-heptyl-3-hydroxy-4H-thiochromen-4-one], in series [1], the “Concentration at which general cytotoxicity starts” value was “above 40 μM”. For the same compound, in series [1], the “Concentration at which inhibition of neurite outgrowth starts” value is “above 40 μM”. Moreover, the MIC with S. aureus USA 300 (MRSA) (setting [6]) was 30 µM and 8.29 µg/mL; in the series on S. aureus NCTC 8325 (setting [7]), 30 µM and 8.29 µg/mL; in the series on S. aureus Mu50 (MRSA) [2] (setting [8]), 25 µM and 6.91 µg/mL; in series [3] (setting [9]), 35 µM and 9.67 µg/mL; with B. subtilis (B. subtilis, LB medium), 25 µM and 6.91 µg/mL. The “Concentration at which growth was completely inhibited” value is 10 µM with Neisseria meningitidis, ≤ 5 µM in the series on Moraxella catarrhalis (setting [10]), ≤ 1.4 µg/mL in the series on Moraxella catarrhalis (lowest concentration tested (5 μM) expressed in μg/mL) and 25 µM in the series with Neisseria gonorrhoeae. The “Growth relative to DMSO control” value in the series on Neisseria meningitidis (5 μM) turned out to be 0.4; in the series on Neisseria meningitidis (10 μM), 0.0; with Neisseria meningitidis (25 μM) it was 0.0; in the series on Neisseria meningitidis (50 μM), 0.0; in the series with Moraxella catarrhalis (5 μM), 0.1; in the series on Moraxella catarrhalis (10 μM) it was 0.0. The “Growth relative to DMSO control” value in the series on Moraxella catarrhalis (25 μM) and in the series on Moraxella catarrhalis (50 μM) was 0.0 in each case.
On elastase (LasB), `CCCCCCCc1oc2ccccc2c(=S)c1O` [Compound 7, 2-heptyl-3-hydroxy-4H-chromene-4-thione] came in with an IC50 of 2000 nM. In addition, the MIC with S. aureus USA 300 (MRSA) (setting [6]) is 60 µM and 16.6 µg/mL; in the series on S. aureus NCTC 8325 (setting [7]), 60 µM and 16.6 µg/mL; with S. aureus Mu50 (MRSA) [2] (setting [8]) it was 50 µM and 13.8 µg/mL; in series [3] (setting [9]), 72.5 µM and 20 µg/mL.
Turning to `CCCCCCCc1[nH]c2ccccc2/c(=N\O)c1O` [Compound 8, 2-heptyl-3-hydroxyquinolin-4(1H)-one oxime], the MIC in the series on S. aureus USA 300 (MRSA) was 100 µM and 27.4 µg/mL; in the series on S. aureus NCTC 8325 (setting [5]), 200 µM and 54.9 µg/mL; in the series with S. aureus Mu50 (MRSA) [2] (MRSA) it was 100 µM and 27.4 µg/mL; in series [3] it was 150 µM and 41.1 µg/mL.
For the compound `Cc1sc2ccccc2c(=O)c1O` [Compound 9, 3-hydroxy-2-methyl-thiochromen-4-one], the MIC was > 1000 µM and > 192 µg/mL in the series on S. aureus USA 300 (MRSA); > 1000 µM and > 192 µg/mL in the series on S. aureus NCTC 8325 (setting [5]); > 1000 µM and > 192 µg/mL in the series with S. aureus Mu50 (MRSA) [2] (MRSA); > 1000 µM and > 192 µg/mL in [3].
For the compound `CCCCc1sc2ccccc2c(=O)c1O` [Compound 10, 3-hydroxy-2-butyl-thiochromen-4-one], the “Concentration at which general cytotoxicity starts” value in [1] came out at 80 µM. The “Concentration at which inhibition of neurite outgrowth starts” value in series [1] was 40 µM. Moreover, the MIC is 50 µM and 11.7 µg/mL in the series on S. aureus USA 300 (MRSA) (setting [6]); 50 µM and 11.7 µg/mL in the series on S. aureus NCTC 8325 (setting [7]); 50 µM and 11.7 µg/mL in the series with S. aureus Mu50 (MRSA) [2] (setting [8]); 50 µM and 11.7 µg/mL in [3] (setting [9]).
As for `CCCCCCCc1sc2ccc(F)cc2c(=O)c1O` [Compound 11, 6-fluoro-2-heptyl-3-hydroxy-4H-thiochromen-4-one], the MIC in the series on S. aureus USA 300 (MRSA) (setting [6]) is 35 µM and 10.3 µg/mL; in the series on S. aureus NCTC 8325 (setting [7]) it was 35 µM and 10.3 µg/mL; in the series on S. aureus Mu50 (MRSA) [2] (setting [8]), 40 µM and 11.8 µg/mL; in [3] (setting [9]), 40 µM and 11.8 µg/mL.
For the compound `CCCCCCCc1sc2ccccc2c(=S)c1O` [Compound 12, 2-heptyl-3-hydroxy-4H-thiochromene-4-thione], at elastase (LasB), it took 2000 nM to reach half-maximal inhibition (IC50).
As for `O=c1c(O)c(CCc2ccccc2)sc2ccccc12` [Formula (14)], in the series with S. aureus USA 300 (MRSA) (setting [6]), the MIC is 40 µM and 11.3 µg/mL. In the series on Moraxella catarrhalis (setting [10]), the “Concentration at which growth was completely inhibited” value is ≤ 5 µM. Further, the “Concentration at which the compound was effective” value in the series with Neisseria gonorrhoeae fell in the range of 25 to 50 µM.
Turning to `CCCCCCCCCCc1sc2ccccc2c(=O)c1O` [Formula (16)], in the series on S. aureus USA 300 (MRSA) (setting [6]), the MIC was > 100 µM and > 32 µg/mL.
Take `CC1(C)S[C@@H]2[C@H](NC(=O)[C@H](N)c3ccccc3)C(=O)N2[C@H]1C(=O)O` [ampicillin]: the “MIC of known antibiotics” value in the series on S. aureus Mu50 (MRSA) [4] is 37 µg/mL.
Turning to `O=C(O)c1cn(C2CC2)c2cc(N3CCNCC3)c(F)cc2c1=O` [ciprofloxacin], the “MIC of known antibiotics” value in the series on S. aureus Mu50 (MRSA) [4] is 66 µg/mL.
As for `CC[C@H]1OC(=O)[C@H](C)[C@@H](O[C@H]2C[C@@](C)(OC)[C@@H](O)[C@H](C)O2)[C@H](C)[C@@H](O[C@@H]2O[C@H](C)C[C@H](N(C)C)[C@H]2O)[C@](C)(O)C[C@@H](C)C(=O)[C@H](C)[C@@H](O)[C@]1(C)O` [erythromycin], the “Concentration to inhibit growth (commercial antibiotics)” value with S. aureus Mu50 (MRSA) [4] (background section) is recorded as > 1 mM.

Source of the values: patent US10961196B2, “Compounds for use as an anti-bacterial or anti-fungal agent and as a zinc sensor” (UNIVERSITÄT KONSTANZ, priority 2016, dated 2021).
